Values joined by “and” are separate entries in the source; they are usually repeats but may differ in a detail not shown here. Equal entries are not always repeated. Where two headings read alike, the source gives them in different places.
Assays:
S. cerevisiae BMA64/luc = conditions: values higher than 2 are considered toxic
Description: (§1) Yeast bioluminescent assay was performed as previously described (Omoruyi and Pohjanvirta [2018]). Two recombinant yeasts, Saccharomyces cerevisiae BMAEREluc/ERα and Saccharomyces cerevisiae BMA64/luc, were kindly provided by Dr. Johanna Rajasärkkä, Department of Food and Environmental Sciences, Faculty of Agriculture and Forestry, University of Helsinki. In the BMAEREluc/ERα, human ERα is expressed. After estrogen-like chemicals bind to ERα, the dimerized receptor binds to a specific DNA sequence called estrogen response element (ERE), in the promotor region of the luc reporter gene, inducing its expression. In BMA64/luc, the luciferase is expressed constitutively, and this strain can be used for the evaluation of cytotoxicity of test compounds.
Both strains were revived from glycerol stock solution on agar and broth forms of synthetic complete medium supplemented with the required amino acids. After the absence of contamination was confirmed by observing single colonies’ morphology on agar plate, approximately 10 μL of cultured yeasts in broth was transferred to 4 mL of synthetic defined (SD) medium supplemented with the required amino acids. The culture was incubated at 30°C on a shaker incubator (200 rpm). After 24-h incubation, the culture was diluted with SD broth to reach the optimal density (OD600) of 0.4 CFU/mL. Subsequently, the culture was incubated in the same incubation condition until the OD600 reached 0.6–0.7 CFU/mL.
Next, 90 μL of cultured yeasts containing 1:20 luciferin solution (0.042 g luciferin dissolved in 9.75 mL of 0.2 M trisodium citrate, and 5.525 mL of 0.2 M citrate, pH 5) was pipetted into every well of a white 96-well flat-bottom plate, and 10 μL of test compounds in a defined concentration range (diluted in 5% EtOH) were added. The plate was incubated at 30°C for approximately 2.5 h, and was then shaken briefly. The luminescence measurement was performed with Luminoskan Ascent microplate luminometer (Thermo Labsystems) using the recommended settings as follows: 1000 ms integration time, single measurement mode, shaking at 60 rpm for 5 s prior to measurement.
Each concentration of test compounds and controls in the assay was tested in triplicate, and the experiment was performed twice.
* The Correction Factor is the luminescence of the strain BMA64/luc with blank solvent divided by the luminescence of the control strain with the sample. Values higher than 2 are considered toxic (Leskinen et al. 2005).
* The Correction Factor is the luminescence of the strain BMA64/luc with blank solvent divided by the luminescence of the control strain with the sample. Values higher than 2 are considered toxic (Leskinen et al. 2005). […] Each experiment was performed in triplicate.

MCF-7 cells [1] = test: MCF-7 cell proliferation assay (MTT reduction); type: cell-based, human; conditions: for EC50: Homo sapiens
Description: MCF-7 cell line which is sensitive to estrogen (ERα^+) was kindly provided by Dr. Sari Tojkander (Department of Veterinary Biosciences, Faculty of Veterinary Medicine, University of Helsinki). Cells were usually grown in T25 or T75 flasks containing DMEM with or without phenol red and supplemented with 7–10% FBS and 4 mM L-glutamine at 37°C in 5% CO2/95% humidified atmosphere. In order to eliminate the disturbing effect of hormones usually present in FBS, cell culture medium supplemented with commercially available charcoal-stripped FBS and 4 mM L-glutamine (SF medium) was used for experiments.
The effect of EEDCs on the proliferation of MCF-7 cells was assessed as previously described by measuring the capacity of the cells in each well to reduce MTT reagent (Van Meeuwen et al. [2007]). Approximately 5000 cells/200 μL of SF medium containing DMEM without phenol red, 5% charcoal-stripped FBS, and 4 mM L-glutamine were seeded per well in a 96-well cell culture plate. On day 2, cells were treated with the SF medium containing test compounds or vehicle. The final concentration of the solvents DMSO and EtOH was lower than 0.1%. On day 5, the SF medium containing test compounds or vehicle were refreshed. On day 8, cells were washed with PBS twice and then incubated with the SF medium containing 1 mg/mL MTT reagent for 1 h. The ability of MCF-7 cells to reduce MTT was measured at the reference wavelength of 595 nm using a microplate reader (Multiskan Ascent, Thermo Fisher Scientific). All the exposures were in triplicate.
The dose-response curves of test samples were plotted against logarithmic-transformed concentrations.

MCF-7 cells [2] = test: LDH cytotoxicity test; conditions: 24 h, up to 10^−4 M
Description: Cytotoxicity was assessed by lactate dehydrogenase (LDH) release. For LDH measurement, Pierce LDH Cytotoxicity Assay Kit (Thermo Scientific, Rockford, USA) was used. MCF-7 cells were seeded at 2.8×10^5 in a transparent 96-well plate, and corner cells of the plate were filled with PBS to prevent the edge effect. SF medium containing DMEM without phenol red, 1% charcoal-stripped FBS, and 4 mM L-glutamine were used for this assay. Plates were incubated for 24 h, and then the cells were treated with test compounds at concentrations ranging from 10^−14 to 10^−4 M or vehicle for another 24 h. On day 3, culture supernatant was collected in a separate 96-well plate, and the assay was continued according to the manufacturer’s instructions. Final absorbance was measured with the microplate reader at 490 and 680 nm. […] Vehicle control was 0.1% EtOH or DMSO. All the exposures were in triplicate, and the experiment was carried out twice.

MCF-7 cells [3] = test: In vitro micronucleus assay for cytokinesis block; type: cell-based, human; conditions: 24 h; for Micronuclei per 1000 binucleated cells, Replicates: single replicate values
Description: The genotoxicity of EEDCs to MCF-7 cells was assessed by the in vitro micronucleus assay for cytokinesis block. MCF-7 cells were seeded at a density of 5×10^4/well in a 12-well plate in SF medium containing DMEM, 7% charcoal-stripped FBS and 4 mM L-glutamine. These cells were treated with test compounds or the positive control for 24 h. Then, cells were washed twice with PBS, treated with 2 μg/mL cytochalasin B, and incubated for 1.5–2 normal cell cycle lengths (~24 h for MCF-7 cells). Finally, cells were washed with PBS and fixed with 4% paraformaldehyde for 10–15 min (in PBS, pH 6.9). Before staining cells with 5% Giemsa stain for 20 min, plates were washed again with PBS and dried. The frequency of micronuclei per 1000 binucleated cells was counted for each well, and the ratio of micronucleus frequency in treated vs. control cells was defined as fold induction. Cells in mitosis were omitted.

human ERα = biological target: T1, human ERα (Homo sapiens, UniProt P03372); test: Yeast bioluminescent assay, S. cerevisiae BMAEREluc/ERα (ERE-luc reporter); type: cell-based; conditions: negative control, Fig. 1a
T1 construct: expressed in transfected cells; host or cells: Saccharomyces cerevisiae BMAEREluc/ERα (recombinant yeast, gift of Dr. Johanna Rajasärkkä, University of Helsinki)
T1 sequence (P03372 1-595): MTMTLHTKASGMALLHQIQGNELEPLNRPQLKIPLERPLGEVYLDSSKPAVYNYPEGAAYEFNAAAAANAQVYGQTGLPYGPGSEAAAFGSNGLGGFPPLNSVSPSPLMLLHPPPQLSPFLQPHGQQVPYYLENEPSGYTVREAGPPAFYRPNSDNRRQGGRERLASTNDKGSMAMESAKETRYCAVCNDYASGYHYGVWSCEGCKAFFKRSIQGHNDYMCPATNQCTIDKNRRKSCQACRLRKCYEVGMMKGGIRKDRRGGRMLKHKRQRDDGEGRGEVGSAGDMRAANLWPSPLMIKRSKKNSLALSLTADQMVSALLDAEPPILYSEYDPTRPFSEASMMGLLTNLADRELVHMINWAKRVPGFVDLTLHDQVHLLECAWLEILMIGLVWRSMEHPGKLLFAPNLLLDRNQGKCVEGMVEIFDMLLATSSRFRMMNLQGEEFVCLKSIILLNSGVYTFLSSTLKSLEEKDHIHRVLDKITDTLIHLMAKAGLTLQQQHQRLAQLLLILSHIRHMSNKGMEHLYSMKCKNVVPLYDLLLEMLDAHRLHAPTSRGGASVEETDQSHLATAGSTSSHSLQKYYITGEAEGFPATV
Description: as §1, with “compounds. […]” for “compounds.”
Next, 90 μL of cultured yeasts containing 1:20 luciferin solution (0.042 g luciferin dissolved in 9.75 mL of 0.2 M trisodium citrate, and 5.525 mL of 0.2 M citrate, pH 5) was pipetted into every well of a white 96-well flat-bottom plate, and 10 μL of test compounds in a defined concentration range (diluted in 5% EtOH) were added. […] The luminescence measurement was performed with Luminoskan Ascent microplate luminometer (Thermo Labsystems) using the recommended settings as follows: 1000 ms integration time, single measurement mode, shaking at 60 rpm for 5 s prior to measurement. […]

| SMILES | Correction Factor (S. cerevisiae BMA64/luc; 5% DMSO, 10^−4 M) | Correction Factor (S. cerevisiae BMA64/luc; 5% DMSO, 10^−6 M) | Correction Factor (S. cerevisiae BMA64/luc; 5% DMSO, 10^−8 M) | Correction Factor (S. cerevisiae BMA64/luc; 5% DMSO, 10^−10 M) | Correction Factor (S. cerevisiae BMA64/luc; 5% DMSO, 10^−12 M) | Correction Factor (S. cerevisiae BMA64/luc; 5% DMSO, 10^−14 M) | Correction Factor (S. cerevisiae BMA64/luc; 5% ethanol, 10^−4 M) | Correction Factor (S. cerevisiae BMA64/luc; 5% ethanol, 10^−6 M) | Correction Factor (S. cerevisiae BMA64/luc; 5% ethanol, 10^−8 M) | maximum level of cytotoxicity (LDH release) (MCF-7 cells [2]) | Correction Factor (S. cerevisiae BMA64/luc; 5% ethanol, 10^−10 M) | Correction Factor (S. cerevisiae BMA64/luc; 5% ethanol, 10^−12 M) | Correction Factor (S. cerevisiae BMA64/luc; 5% ethanol, 10^−14 M) | also measured |
| --- | --- | --- | --- | --- | --- | --- | --- | --- | --- | --- | --- | --- | --- | --- |
| C[C@]12CC[C@@H]3c4ccc(O)cc4CC[C@H]3[C@@H]1CC[C@@H]2O [17β-estradiol] | 3.23±0.53 | 3.42±0.81 | 2.98±0.42 | 3.11±0.47 | 2.60±0.69 | 2.59±0.23 | 1.12±0.12 | 1.08±0.05 | 1.11±0.06 | less than 2.5% | – | – | – | EC50 (MCF-7 cells [1]; MCF7, MCF-7 cells, hormone-depleted medium, MTT, read-out: EC50 (proliferative effect)): 0.21 nM; Micronuclei per 1000 binucleated cells, Average (MCF-7 cells [3]; 10^−7 M): 13.33 per 1000 binucleated cells; Micronuclei per 1000 binucleated cells, Replicates (MCF-7 cells [3]; 10^−7 M): 10 per 1000 binucleated cells and 13 per 1000 binucleated cells and 17 per 1000 binucleated cells; Micronuclei per 1000 binucleated cells, Average (MCF-7 cells [3]; 10^−8 M): 13 per 1000 binucleated cells; Micronuclei per 1000 binucleated cells, Replicates (MCF-7 cells [3]; 10^−8 M): 12 per 1000 binucleated cells and 14 per 1000 binucleated cells and 13 per 1000 binucleated cells |
| O=c1c(-c2ccc(O)cc2)coc2cc(O)cc(O)c12 [genistein] | 3.19±0.42 | 2.59±0.95 | 3.59±1.22 | 2.20±0.05 | 2.59±0.45 | 3.88±1.32 | 1.59±0.17 | 1.27±0.42 | 1.18±0.24 | less than 2.5% | 1.07±0.04 | 1.30±0.22 | 1.58±0.23 | EC50 (MCF-7 cells [1]; MCF7, read-out: EC50 (proliferative effect)): 831 nM; efficacy (maximum induction of cell growth) compared with 17β-estradiol (MCF-7 cells [1]; MCF-7 cells, MTT): about half |
| CC(=O)[C@H]1CC[C@H]2[C@@H]3CCC4=CC(=O)CC[C@]4(C)[C@H]3CC[C@]12C [progesterone] | – | – | – | – | – | – | – | – | – | – | – | – | – | luciferase activity (estrogenic response) (human ERα): did not produce any detectable luciferase activity |
| CC/C(=C(\c1ccccc1)c1ccc(OCCN(C)C)cc1)c1ccccc1 [tamoxifen] | 2.87±0.04 | 2.30±0.14 | 2.54±0.17 | 2.47±0.30 | 2.51±0.21 | 2.40±0.09 | 1.35±0.25 | 1.21±0.32 | 1.50±0.27 | – | 1.28±0.25 | 1.23±0.16 | 1.39±0.31 | dose-response of proliferation (MCF-7 cells [1]; in the presence of 10^−12 M of 17β-estradiol, Fig. 2b): inverse dose-response curve |
